Data on five molecules can be found in ChEMBL document CHEMBL1201862, “PubChem BioAssay data set” (2004).

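Step 1: Grow cells in 96-well plates. Step 2: Expose to compound for 48 hours at 5 concentrations. Step 3: Interpolate endpoints linearly; if unreached, use highest concentration. At the GI50, growth is halved.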 Active and inactive are the calls of the source. Rule as the data show it: active = GI50 up to about 1.1 µM and inactive = higher.

Among the test systems are EKVX; MDA-N; DU-145; SF-268; A549; LOX IMVI; SF-539; NCI-H522; SN12C; CCRF-CEM; BT-549; MDA-MB-435; HOP-62; ACHN; RXF 393; SNB-19; A498; M14; SR; SK-MEL-2.
What all share (experiment): inhibition of tumour cell growth, NCI panel, 48 h

Regarding `COc1ccc2c(c1)c(=O)c1c(NCCNCCO)ccc3c(=O)n(CCN(C)C)c(=O)n2c31`, the GI50 is 0.0889 µM (active) in the test on EKVX; 0.112 µM (active) with MDA-N; < 0.0337 µM (active) in the test on DU-145; 0.103 µM (active) with SF-268; < 0.0255 µM (active) with A549; 0.0198 µM (active) in the test on LOX IMVI. Besides, the GI50 with SF-539 was < 0.0265 µM (active); with NCI-H522 it was < 0.0182 µM (active); with SN12C it was < 0.0198 µM (active); in the test with CCRF-CEM, 0.104 µM (active); in the test with BT-549 it was 0.615 µM (active); with MDA-MB-435, 0.103 µM (active). The GI50 in the test with HOP-62 is 0.109 µM (active); with ACHN it was 0.027 µM (active); in the test with RXF 393, 0.114 µM (active); in the test on SNB-19, 0.07 µM (active); in the test on A498, 0.116 µM (active); in the test on M14, 0.27 µM (active). The values for the GI50 with SR and in the test with SK-MEL-2 were < 0.01 µM (active) and 0.243 µM (active), respectively.

In the case of `Oc1cccc2cc(Br)cnc12`, the GI50 is 5.14 µM (inactive) in the test with EKVX; 21.7 µM (inactive) in the test with MDA-N; 28.2 µM (inactive) with DU-145; 2.33 µM (inactive) in the test on SF-268; 5.97 µM (inactive) in the test with A549; 4.1 µM (inactive) in the test on LOX IMVI. For the same molecule, the GI50 in the test with SF-539 was 10 µM (inactive); in the test on NCI-H522, 2.49 µM (inactive); in the test with SN12C it was 14.9 µM (inactive); in the test with CCRF-CEM it was 2.37 µM (inactive); with BT-549, 28.1 µM (inactive); in the test with MDA-MB-435, 14.1 µM (inactive). Moreover, the GI50 in the test on HOP-62 was 16.2 µM (inactive); with ACHN, 6.03 µM (inactive); in the test with RXF 393, 16.7 µM (inactive); in the test with SNB-19, > 39.4 µM (inactive); with A498, 27.5 µM (inactive); with M14, 9.14 µM (inactive). In addition, the GI50 was 3.42 µM (inactive) in the test on SR and 24.5 µM (inactive) in the test on SK-MEL-2.

As for `C[C@@H](CC(=O)OCc1ccccc1)OC1OC(COC(=O)C(C)(C)C)C(OC(=O)C(C)(C)C)C(OC(=O)C(C)(C)C)C1OC(=O)C(C)(C)C` (stereo not given in full), the GI50 is > 100 µM (inactive) in the test with EKVX; 36 µM (inactive) with MDA-N; > 100 µM (inactive) in the test with DU-145; > 100 µM (inactive) in the test with SF-268; > 100 µM (inactive) with A549; > 100 µM (inactive) with LOX IMVI. Moreover, the GI50 with SF-539, in the test with NCI-H522, in the test with SN12C, in the test with CCRF-CEM, in the test on BT-549 and with MDA-MB-435 was > 100 µM (inactive) in each case. Besides, the GI50 in the test on HOP-62, in the test with ACHN, with RXF 393, in the test with SNB-19, in the test on A498 and in the test on M14 was > 100 µM (inactive) in each case. The GI50 with SR and in the test on SK-MEL-2 was > 100 µM (inactive) each time.

Turning to `CCCCC/C(=N\c1[nH]cnc1C(N)=O)OCC`, the GI50 with EKVX was 32.3 µM (inactive); in the test on MDA-N it was > 100 µM (inactive); in the test on DU-145, > 100 µM (inactive); in the test on SF-268, > 100 µM (inactive); in the test with A549 it was > 100 µM (inactive); in the test with LOX IMVI, > 100 µM (inactive). Moreover, the GI50 was > 100 µM (inactive) in the test with SF-539; 75 µM (inactive) in the test with NCI-H522; > 100 µM (inactive) in the test with SN12C; > 100 µM (inactive) in the test with CCRF-CEM; > 100 µM (inactive) in the test with BT-549; > 100 µM (inactive) in the test on MDA-MB-435. The GI50 in the test with HOP-62 was > 100 µM (inactive); with ACHN, > 100 µM (inactive); in the test with RXF 393, > 100 µM (inactive); in the test with SNB-19, > 100 µM (inactive); with A498 it was > 100 µM (inactive); in the test with M14 it was 94.2 µM (inactive). In addition, the GI50 in the test with SR and in the test with SK-MEL-2 was > 100 µM (inactive) in each case.

With `COc1cc2c3c(c1O)C1(C=CC(=O)C=C1)CC3N(C)CC2` (stereo not given) [GLAZIOVINE], the GI50 with EKVX is 8.41 µM (inactive); in the test on MDA-N, 10.7 µM (inactive); in the test with DU-145, 13.2 µM (inactive); with SF-268 it was 11 µM (inactive); with A549, 22.4 µM (inactive); with LOX IMVI, 2.77 µM (inactive). Further, the GI50 with SF-539 was 10.1 µM (inactive); in the test with NCI-H522, 1.93 µM (inactive); in the test on SN12C, 9.18 µM (inactive); with CCRF-CEM, 2.31 µM (inactive); with BT-549, 5.78 µM (inactive); in the test on MDA-MB-435 it was 11 µM (inactive). Moreover, the GI50 in the test on HOP-62 is 13.1 µM (inactive); with ACHN, 14.5 µM (inactive); in the test with RXF 393, 6.14 µM (inactive); with SNB-19, 14.3 µM (inactive); in the test with A498 it was 17.7 µM (inactive); in the test on M14 it was 12.1 µM (inactive). Besides, the GI50 in the test on SR is 3.3 µM (inactive); with SK-MEL-2, 10.7 µM (inactive).
